The values below come from publication PMC11384906, “PAR1-mediated Non-periodical Synchronized Calcium Oscillations in Human Mesangial Cells” (Function, 2024).

The test system of assay [1] is freshly isolated Wistar rat glomeruli. The settings on record: Ang II 60 µM, acute application; text b29 words it 'up to'.
Text: Sixteen-week Wistar Kyoto male rats were obtained from Charles River and were kept in a light-controlled environment with a 12:12-h light/dark cycle and given free access to water (filtered, RO water) and food (5V75-PicoLab Verified 75 IF, LabDiet, USA).
Briefly, male Wistar rat kidneys were harvested, decapsulated, and used to isolate glomeruli by differential sieving. Freshly isolated glomeruli were collected and stored on ice in a 15-mL tube with a 5% BSA (Sigma-Aldrich, # A8327)/RPMI-1640 solution with non-permeable 150 kDa TRITC-dextran (1 mg/mL, TdB Labs, #TD150, Uppsala, Sweden). […] Glomeruli were attached to poly-L-lysine covered glass-bottom dishes and covered with the extracellular solution containing 150 kDa TRITC dextran. Z-stacks with 18 consecutive focal planes (3 µm each) were collected every 1 min, allowing glomeruli volume reconstruction. Output files were imported into Imaris Software (Oxford Bitplane, version 9.6.1), reconstructed in 3D, and processed to calculate glomerular volume.
The test system of another assay is monocytes. The settings on record: cited from earlier work.
In a further assay the test system is endothelial cells. The settings on record: cited from earlier work.
A further assay has as its system MCs. Particulars: cited from earlier work.
The test system of a further assay is platelets. Particulars: cited from earlier work.
The next assay relates to neuronal cells. The settings on record: cited from earlier work.
Assay [2] relates to vascular smooth muscle cells. The settings on record: cited from earlier work.
The subject of another assay is mesangial cells. Particulars: cited from earlier work.

Regarding Angiotensin II [Ang II], the Glomerular volume reduction in assay [1] was 20.7%.
On to thrombin, for which the “Thrombin concentration required to activate intracellular Ca2+ signaling” value in the assay on monocytes and in the assay on neuronal cells was 1-5 U/mL each time. Also, in the assay on endothelial cells, the “Thrombin concentration required to activate endothelial cells” value was 0.5 to 2 U/mL. The “Effect on MC proliferation and synthesis” value in the assay on MCs is “stimulate MC proliferation and synthesis of prostaglandins, nitric oxide, endothelin-1, extracellular matrix components, and chemokines”. Further, the “Thrombin concentration sufficient to induce Ca2+ mobilization” value in the assay on platelets was 0.1 to 1 U/mL. Moreover, the “Thrombin concentration required to activate vascular smooth muscle cells” value in assay [2] was 0.5 to 2 U/mL. In the assay on mesangial cells, the “Concentration at which significant Ca2+ response was detected” value is given as “around 0.1 U/mL”. Moreover, the “Concentration at which significant Ca2+ response was detected (molar equivalent)” value in the assay with mesangial cells (equivalent of 0.1 U/mL) was “approximately 1 nM”.
